Laboratory results as given in patent publication US9382255B2, “Substituted pyrrolopyrimidinylamino-benzothiazolones as MKNK kinase inhibitors” (BAYER PHARMA AKTIENGESELLSCHAFT, priority 2012, dated 2016).
pIC50: −log10 of the molar value.

Target: T1, human full-length MKNK1 (Homo sapiens, UniProt Q9BUB5, T385D)
T1 construct: GST (N); purchased Carna Biosciences 02-145; host or cells: insect cells (baculovirus expression system)
Test: MKNK1 kinase high ATP assay (TR-FRET)
Format: biochemical
Settings: high ATP (2 mM final), 15 min preincubation with enzyme, GST-MKNK1 (T344D)
Experimental: MKNK1 Kinase High ATP Assay
MKNK1-inhibitory activity at high ATP of compounds of the present invention after their preincubation with MKNK1 was quantified employing the TR-FRET-based MKNK1 high ATP assay as described in the following paragraphs.
A recombinant fusion protein of Glutathione-S-Transferase (GST, N-terminally) and human full-length MKNK1 (amino acids 1-424 and T344D of accession number BAA 19885.1), expressed in insect cells using baculovirus expression system and purified via glutathione sepharose affinity chromatography, was purchased from Carna Biosciences (product no 02-145) and used as enzyme. As substrate for the kinase reaction the biotinylated peptide biotin-Ahx-IKKRKLTRRKSLKG (C-terminus in amide form) was used, which can be purchased e.g. from the company Biosyntan (Berlin-Buch, Germany).
For the assay 50 nL of a 100 fold concentrated solution of the test compound in DMSO was pipetted into a black low volume 384 well microtiter plate (Greiner Bio-One, Frickenhausen, Germany), 2 μL of a solution of MKNK1 in aqueous assay buffer [50 mM HEPES pH 7.5, 5 mM MgCL2, 1.0 mM dithiothreitol, 0.005% (v/v) Nonidet-P40 (Sigma)] was added and the mixture was incubated for 15 min at 22° C. to allow pre-binding of the test compounds to the enzyme before the start of the kinase reaction. Then the kinase reaction was started by the addition of 3 μL of a solution of adenosine-tri-phosphate (ATP, 3.3 mM=>final conc. in the 5 μL assay volume is 2 mM) and substrate (0.1 μM=>final conc. in the 5 μL assay volume is 0.06 μM) in assay buffer and the resulting mixture was incubated for a reaction time of 30 min at 22° C. The concentration of MKNK1 was adjusted depending of the activity of the enzyme lot and was chosen appropriate to have the assay in the linear range, typical concentrations were in the range of 0.003 μg/mL. The reaction was stopped by the addition of 5 μL of a solution of TR-FRET detection reagents (5 nM streptavidine-XL665 [Cisbio Bioassays, Codolet, France] and 1 nM anti-ribosomal protein S6 (pSer236)-antibody from Invitrogen [#44921G] and 1 nM LANCE EU-W1024 Labeled ProteinG [Perkin-Elmer, product no. AD0071]) in an aqueous EDTA-solution (100 mM EDTA, 0.1% (w/v) bovine serum albumin in 50 mM HEPES pH 7.5).
The resulting mixture was incubated for 1 h at 22° C. to allow the formation of complex between the phosphorylated biotinylated peptide and the detection reagents. Subsequently the amount of phosphorylated substrate was evaluated by measurement of the resonance energy transfer from the Eu-chelate to the streptavidine-XL. Therefore, the fluorescence emissions at 620 nm and 665 nm after excitation at 350 nm were measured in a TR-FRET reader, e.g. a Rubystar (BMG Labtechnologies, Offenburg, Germany) or a Viewlux (Perkin-Elmer). The ratio of the emissions at 665 nm and at […] was taken as the measure for the amount of phosphorylated substrate. The data were normalised (enzyme reaction without inhibitor=0% inhibition, all other assay components but no enzyme=100% inhibition).

T1 sequence (Q9BUB5 1-424 isoform Q9BUB5-2 T344D): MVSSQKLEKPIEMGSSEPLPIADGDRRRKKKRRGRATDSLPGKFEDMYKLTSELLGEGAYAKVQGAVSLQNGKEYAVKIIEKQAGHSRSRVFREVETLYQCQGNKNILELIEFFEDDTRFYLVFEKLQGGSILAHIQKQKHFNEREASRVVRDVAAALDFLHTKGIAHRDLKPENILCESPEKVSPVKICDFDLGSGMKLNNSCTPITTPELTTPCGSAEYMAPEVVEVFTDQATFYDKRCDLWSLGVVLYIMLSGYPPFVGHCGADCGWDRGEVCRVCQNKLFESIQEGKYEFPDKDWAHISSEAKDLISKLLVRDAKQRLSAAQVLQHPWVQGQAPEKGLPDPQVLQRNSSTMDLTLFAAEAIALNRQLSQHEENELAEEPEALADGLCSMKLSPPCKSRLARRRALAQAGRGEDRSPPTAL

| pIC50 | SMILES |
| --- | --- |
| 7.82 | CN(C)C(=O)c1c[nH]c2ncnc(Nc3ccc4[nH]c(=O)sc4c3)c12 [Example 20, N,N-dimethyl-4-[(2-oxo-2,3-dihydro-1,3-benzothiazol-6-yl)amino]-7H-pyrrolo[2,3-d]pyrimidine-5-carboxamide] |
| 7.68 | COc1cc2[nH]c(=O)sc2cc1Nc1ncnc2[nH]c(C(=O)O)cc12 [Example 26, 4-[(5-Methoxy-2-oxo-2,3-dihydro-1,3-benzothiazol-6-yl)amino]-7H-pyrrolo[2,3-d]pyrimidine-6-carboxylic acid] |
| 7.89 | N#Cc1c[nH]c2ncnc(Nc3ccc4[nH]c(=O)sc4c3)c12 [Example 12, 4-[(2-Oxo-2,3-dihydro-1,3-benzothiazol-6-yl)amino]-7H-pyrrolo[2,3-d]pyrimidine-5-carbonitrile] |
